According to patent US9670172B2, “Heterocyclic compounds and methods of use” (Medivation Technologies, Inc., priority 2014, dated 2017):
Values after ≈ are worked out from the molar mass of the structure shown. Where two headings read alike, the source gives them in different places.

Tests used:
[1] = test system: SREBP2; assay: SREBP2 cleavage in HEPG2 cells (Western blot normalized to actin); assay type: cell-based; settings: Homo sapiens, several concentrations, FIG. 1
[2] = pKa by potentiometric and spectrophotometric methods (Pion, Inc.); assay type: physicochemical; settings: two values, read-out: pKa experimentally obtained
Excerpt: As has been described above, the inherent pKa(s) of molecules can be assessed by potentiometric methods known to the skilled artisan, typically UV spectrophotometry [see, for example, Julémont, et al. J. Med. Chem. (2002), 45, pp 5182-5185]. In-silico methods can be used as a predictive tool, and software is commercially available from, for example, ACD/Labs, Molecular Discovery, ChemAxon, and other vendors. […] The compounds provided herein contain several ionizable centers including, for example, the trifluoromethylsulfonamide nitrogen atom; the thiazole ring nitrogen atom; the “ring A” pyridine nitrogen atom, etc.
Other ionized forms are conceivable, but those presented here are a protonated form; a neutral or internal zwitterionic form; and an anionic form. Which form would exist is dependent upon the pH of the aqueous or physiological solution in which the compound is placed. […] These values are similar to those experimentally obtained under potentiometric and spectrophotometric methods [courtesy of Pion, Inc.], found to be 3.09 and 5.27. […] Based on the calculated/measured pKa values of the trifluoromethylsulfonamide containing compounds claimed herein, it is likely that at a pH of 6-8, these compounds will predominantly exist in the anionic form, with the above equilibrium lying to the right at higher pH values. […]

[3] = test system: SREBP2; assay: SREBP2 cleavage in HEPG2 cells (Western blot normalized to actin); assay type: cell-based; settings: Homo sapiens, HepG2 cells, read-out: Average SREBP2 cleavage (% Inhibition, n = 3); for inhibition at 20 µM: 24 h, 1 day, DMEM without FBS
Method: Average SREBP2 cleavage in HEPG2 cells was measured in the presence of compounds disclosed in Table 1. HepG2 cells were seeded at 500,000 cells per well in 6-well plates in DMEM supplemented with 10% FBS. After 2 days, cells were treated with compounds (20 μM) for 1 day in DMEM without FBS. Western blots were normalized with respect to actin.
The results are shown in Table 3 as percent inhibition@20 μM, and in Table 4 as percent inhibition@5 μM.

[4] = Solubility study at different pH (Pion, Inc.); assay type: physicochemical; settings: aqueous buffer
Excerpt: Other ionized forms are conceivable, but those presented here are a protonated form; a neutral or internal zwitterionic form; and an anionic form. Which form would exist is dependent upon the pH of the aqueous or physiological solution in which the compound is placed. […] These values are similar to those experimentally obtained under potentiometric and spectrophotometric methods [courtesy of Pion, Inc.], found to be 3.09 and 5.27. […] It is postulated that the more electronegative nature of the CF3 group results in a more highly acidic nature of the compound. Based on the calculated/measured pKa values of the trifluoromethylsulfonamide containing compounds claimed herein, it is likely that at a pH of 6-8, these compounds will predominantly exist in the anionic form, with the above equilibrium lying to the right at higher pH values. The anionic form renders the compound more aqueous soluble and therefore better absorbed. […] When a compound is dosed orally, most of the absorption occurs in the intestines where the pH ranges from 6-8.

[5] = test system: HepG2 cells; assay: HepG2 cell viability by MTS; assay type: cell-based; settings: Homo sapiens, several concentrations, FIG. 1
Method: (§1) For viability measurements, HepG2 cells were seeded at 5,000 cells per well in 96-well plates in DMEM supplemented with 10% FBS. After 1 day in culture, cells were treated with compounds (20 μM & 5 μM) for 3 days in DMEM without FBS. Viability was measured by MTS. Treatment with compounds (20 μM & 5 μM) was carried out in medium without FBS, and viability was measured by MTS. […]

[6] = HepG2 cell viability by MTS; assay type: cell-based; settings: human, HepG2 cells, 3 days, DMEM without FBS, MTS, read-out: Average Viability (% Inhibition, n = 3)
Method: as §1

[7] = PK parameters for representative compounds (i.v. and p.o.); settings: in vivo; for half-life: read-out: Terminal t1/2 (converted)
Excerpt: Standard PK parameters were collected in Mouse and Dog for Compound #37 in mouse (FIG. 4A) and dog (FIG. 4B).

Work on `CC(C)Cc1cc(-c2nc(-c3ccc(NS(=O)(=O)C(F)(F)F)cc3Cl)cs2)ccn1` [Compound 37, N-(3-chloro-4-(2-(2-isobutylpyridin-4-yl)thiazol-4-yl)phenyl)-1,1,1-trifluoromethanesulfonamide] yielded an IC50 [1] of 4.6 µM, a pKa [2] of 3.09 and an inhibition at 20 µM [3] of 94.6%. The inhibition at 5 µM [3] was 75%, the solubility ([4]; pH 6.0) was 13 µg/mL (≈ 27.3 µM) and the solubility ([4]; pH 7.0) was 104 µg/mL (≈ 219 µM). The solubility ([4]; pH 8.0) was > 130 µg/mL, the IC50 [5] was 2.15 µM and the cytotoxicity at 3 days, 5 μM [6] was 94%. The cytotoxicity at 3 days, 20 μM [6] was 95%.
Molecule `O=S(=O)(Nc1ccc(-c2csc(-c3ccnc(CCC(F)(F)F)c3)n2)c(Cl)c1)C(F)(F)F` [Compound 64, N-(3-chloro-4-{2-[2-(3,3,3-trifluoropropyl)pyridin-4-yl]-1,3-thiazol-4-yl}phenyl)-1,1,1-trifluoromethanesulfonamide] has an AUC(0-t) ([7]; iv, i.v. @ 2 mg/kg) of 38.5 µM·h, a Cmax ([7]; iv, i.v. @ 2 mg/kg) of 7.13 µM and a Vd ([7]; iv, i.v. @ 2 mg/kg) of 1.95 L/kg. For the same molecule, the clearance ([7]; iv, i.v. @ 2 mg/kg) was 0.917 mL/min/kg, the AUC(0-t) ([7]; po, p.o. @ 10 mg/kg) was 526 µM·h and the Cmax ([7]; po, p.o. @ 10 mg/kg) was 32.1 µM. The Tmax ([7]; po, p.o. @ 10 mg/kg) was 24 h, the bioavailability ([7]; po, p.o. @ 10 mg/kg) was 273% and the half-life ([7]; po, p.o. @ 10 mg/kg) was > 8 h. The inhibition at 20 µM [3] was 97% and the cytotoxicity at 3 days, 20 μM [6] was 100%.
`O=S(=O)(Nc1ccc(-c2csc(-c3ccnc(CC4CCCCC4)c3)n2)c(Cl)c1)C(F)(F)F` [Compound 70, N-(3-chloro-4-{2-[2-(cyclohexylmethyl)pyridin-4-yl]-1,3-thiazol-4-yl}phenyl)-1,1,1-trifluoromethanesulfonamide] showed an AUC(0-t) ([7]; iv, i.v. @ 2 mg/kg) of 2.2 µM·h, a Cmax ([7]; iv, i.v. @ 2 mg/kg) of 4 µM and a Vd ([7]; iv, i.v. @ 2 mg/kg) of 5.22 L/kg. For the same molecule, the clearance ([7]; iv, i.v. @ 2 mg/kg) was 54.7 mL/min/kg, the half-life ([7]; iv, i.v. @ 2 mg/kg) was 1.1 h and the AUC(0-t) ([7]; po, p.o. @ 10 mg/kg) was 5.19 µM·h. For the same molecule, the Cmax ([7]; po, p.o. @ 10 mg/kg) was 2.2 µM, the Tmax ([7]; po, p.o. @ 10 mg/kg) was 0.5 h and the bioavailability ([7]; po, p.o. @ 10 mg/kg) was 46.4%. For the same molecule, the half-life ([7]; po, p.o. @ 10 mg/kg) was 1.04 h, the inhibition at 5 µM [3] was 73% and the cytotoxicity at 3 days, 5 μM [6] was 100%.
With `O=S(=O)(Nc1ccc(-c2csc(-c3cccc4ccccc34)n2)c(Cl)c1)C(F)(F)F` [Compound 71, N-{3-chloro-4-[2-(naphthalen-1-yl)-1,3-thiazol-4-yl]phenyl}-1,1,1-trifluoromethanesulfonamide] the AUC(0-t) ([7]; iv, i.v. @ 2 mg/kg) was 13.6 µM·h, the Cmax ([7]; iv, i.v. @ 2 mg/kg) was 3.57 µM and the Vd ([7]; iv, i.v. @ 2 mg/kg) was 1.27 L/kg. It also gave a clearance ([7]; iv, i.v. @ 2 mg/kg) of 4.18 mL/min/kg, a half-life ([7]; iv, i.v. @ 2 mg/kg) of 3.5 h and an AUC(0-t) ([7]; po, p.o. @ 10 mg/kg) of 51.5 µM·h. For the same molecule, the Cmax ([7]; po, p.o. @ 10 mg/kg) was 7.57 µM, the Tmax ([7]; po, p.o. @ 10 mg/kg) was 4 h and the bioavailability ([7]; po, p.o. @ 10 mg/kg) was 75.9%. The half-life ([7]; po, p.o. @ 10 mg/kg) was > 8 h, the inhibition at 5 µM [3] was 77% and the cytotoxicity at 3 days, 5 μM [6] was 97%.
Molecule `O=S(=O)(Nc1ccc(-c2csc(-c3cccc4[nH]ccc34)n2)c(Cl)c1)C(F)(F)F` [Compound 80, N-{3-chloro-4-[2-(1H-indol-4-yl)-1,3-thiazol-4-yl]phenyl}-1,1,1-trifluoromethanesulfonamide] has an AUC(0-t) ([7]; iv, i.v. @ 2 mg/kg) of 8.94 µM·h, a Cmax ([7]; iv, i.v. @ 2 mg/kg) of 3.63 µM and a Vd ([7]; iv, i.v. @ 2 mg/kg) of 1.72 L/kg. For the same molecule, the clearance ([7]; iv, i.v. @ 2 mg/kg) was 70.8 mL/min/kg, the half-life ([7]; iv, i.v. @ 2 mg/kg) was 2.8 h and the AUC(0-t) ([7]; po, p.o. @ 10 mg/kg) was 130 µM·h. The Cmax ([7]; po, p.o. @ 10 mg/kg) was 20.6 µM, the Tmax ([7]; po, p.o. @ 10 mg/kg) was 4 h and the bioavailability ([7]; po, p.o. @ 10 mg/kg) was 291%. The half-life ([7]; po, p.o. @ 10 mg/kg) was > 8 h, the inhibition at 5 µM [3] was 90% and the cytotoxicity at 3 days, 5 μM [6] was 86%.
`O=S(=O)(Nc1ccc(-c2csc(-c3ccc4c(c3)CCO4)n2)c(Cl)c1)C(F)(F)F` [Compound 82, N-{3-chloro-4-[2-(2,3-dihydro-1-benzofuran-5-yl)-1,3-thiazol-4-yl]phenyl}-1,1,1-trifluoromethanesulfonamide] gave an AUC(0-t) ([7]; iv, i.v. @ 2 mg/kg) of 25.4 µM·h, a Cmax ([7]; iv, i.v. @ 2 mg/kg) of 12.6 µM and a Vd ([7]; iv, i.v. @ 2 mg/kg) of 0.719 L/kg. The clearance ([7]; iv, i.v. @ 2 mg/kg) was 2.28 mL/min/kg, the half-life ([7]; iv, i.v. @ 2 mg/kg) was 3.64 h and the AUC(0-t) ([7]; po, p.o. @ 10 mg/kg) was 175 µM·h. For the same molecule, the Cmax ([7]; po, p.o. @ 10 mg/kg) was 25.8 µM, the Tmax ([7]; po, p.o. @ 10 mg/kg) was 4 h and the bioavailability ([7]; po, p.o. @ 10 mg/kg) was 138%. The half-life ([7]; po, p.o. @ 10 mg/kg) was > 8 h, the inhibition at 5 µM [3] was 77% and the cytotoxicity at 3 days, 5 μM [6] was 82%.
`O=S(=O)(Nc1ccc(-c2csc(-c3ccnc(N4CCCCC4)c3)n2)c(Cl)c1)C(F)(F)F` [Compound 85, N-(3-chloro-4-{2-[2-(piperidin-1-yl)pyridin-4-yl]-1,3-thiazol-4-yl}phenyl)-1,1,1-trifluoromethanesulfonamide] gave an AUC(0-t) ([7]; iv, i.v. @ 2 mg/kg) of 0.655 µM·h, a Cmax ([7]; iv, i.v. @ 2 mg/kg) of 0.241 µM and a Vd ([7]; iv, i.v. @ 2 mg/kg) of 27.3 L/kg. For the same molecule, the clearance ([7]; iv, i.v. @ 2 mg/kg) was 77.2 mL/min/kg, the half-life ([7]; iv, i.v. @ 2 mg/kg) was 4.08 h and the AUC(0-t) ([7]; po, p.o. @ 10 mg/kg) was 2.27 µM·h. For the same molecule, the Cmax ([7]; po, p.o. @ 10 mg/kg) was 0.45 µM, the Tmax ([7]; po, p.o. @ 10 mg/kg) was 2 h and the bioavailability ([7]; po, p.o. @ 10 mg/kg) was 69.3%. For the same molecule, the half-life ([7]; po, p.o. @ 10 mg/kg) was > 8 h, the inhibition at 5 µM [3] was 82% and the cytotoxicity at 3 days, 5 μM [6] was 93%.
Work on `O=S(=O)(Nc1ccc(-c2csc(-c3cccc(N4CCCCC4)c3)n2)c(Cl)c1)C(F)(F)F` [Compound 88, N-(3-chloro-4-{2-[3-(piperidin-1-yl)phenyl]-1,3-thiazol-4-yl}phenyl)-1,1,1-trifluoromethanesulfonamide] yielded an AUC(0-t) ([7]; iv, i.v. @ 2 mg/kg) of 10.6 µM·h, a Cmax ([7]; iv, i.v. @ 2 mg/kg) of 3.44 µM and a Vd ([7]; iv, i.v. @ 2 mg/kg) of 1.45 L/kg. For the same molecule, the clearance ([7]; iv, i.v. @ 2 mg/kg) was 5 mL/min/kg, the half-life ([7]; iv, i.v. @ 2 mg/kg) was 3.35 h and the AUC(0-t) ([7]; po, p.o. @ 10 mg/kg) was 51.5 µM·h. The Cmax ([7]; po, p.o. @ 10 mg/kg) was 8.41 µM, the Tmax ([7]; po, p.o. @ 10 mg/kg) was 2 h and the bioavailability ([7]; po, p.o. @ 10 mg/kg) was 96.8%. For the same molecule, the half-life ([7]; po, p.o. @ 10 mg/kg) was > 8 h, the inhibition at 5 µM [3] was 90% and the cytotoxicity at 3 days, 5 μM [6] was 19%.
